Reference: paper PMC12274739, “Differential substrate degradation by super-degron: EGFP in wild-type mouse cells, PD-1 requires CRBN humanization” (iScience, 2025)
“And” between values parts separate entries of the source, which are not always exact repeats. Equal entries are not always repeated. Where two headings read alike, the source gives them in different places.

Tests used:
[1] = tested on: EGFP-SD; format: cell-based, mouse; conditions: for Plateau, EGFP-SD degradation: control = 1; for K, EGFP-SD degradation: one phase decay
[2] = tested on: CD8+ and CD4+ T cells infiltrating the MC-38 microenvironment; test: Markers on T cells from MC-38 tumor microenvironment, flow cytometry day 9; format: in vivo, mouse
Procedure: (§1) Data are represented as mean ± standard error (SEM). The same experiment was repeated twice to confirm reproducibility. p-values were determined by two-way ANOVA multiple comparisons. ∗∗∗∗p < 0.0001 and ∗p = 0.0267. […] Data are represented as mean ± SEM. The same experiment was repeated twice to confirm reproducibility. p-values were determined by two-way ANOVA multiple comparisons. ∗∗∗∗p < 0.0001, ∗∗∗p = 0.0005, ∗∗p = 0.0067. […] Ratio of PD-1 positive cells and mean fluorescence intensity (MFI) of PD-1 (D), TIM-3 (E), and LAG-3 (F) on CD8^+ and CD4^+ T cells isolated from tumor microenvironments 9 days after the initiation of treatment are shown. Fluorescence intensity of each molecule was measured by flow cytometry, and the geometric MIFs of marker-positive cells were calculated. The data in two experiments were compiled. p-values were determined by the Brown-Forsythe and Welch ANOVA test. Different letters indicate statistically significant differences between groups (p < 0.05). Boxplots: hinges, 25th and 75th percentiles; middle line, median; whiskers, minimum to maximum value.
Next, the effects of SD-induced PD-1 reduction were compared with those of anti-PD-1 antibody treatment in vivo. […] CD3^+ T cells infiltrating the MC-38 microenvironment were analyzed on day 9 of treatment before the MC-38 tumor masses had shrunk with treatment and no longer provided sufficient T cells for FACS analyses.
Subsequently, we analyzed the proportion of exhaustion and activation marker-positive cells in each experimental group, as well as the expression levels of each marker in the marker-positive cells.
P-values were determined by one-way ANOVA with Tukey’s multiple comparisons. IBR: IBR-treated.
Samples are the same as Figure 7D. CrbnI391V/I391V mice were used for the experiments. Only PD-1 genotypes were shown in D. Pdcd1+/+/CrbnI391V/I391V control Ab: n = 11, Pdcd1+/+/CrbnI391V/I391V […]
E Expression analyses of PD-1, TIM-3, LAG-3, TIGIT and CX3CR1 on T cells by flow cytometry.
Cells in microenvironments were sorted by indicated gates. Dotted lines indicate isotype control. […]
PD-1 treatment. […] Different letters indicate statistically significant differences between groups (p < 0.05). Box plots: hinges, 25th and 75th percentiles; middle line, median; whiskers, minimum to maximum value.

[3] = tested on: MC-38 adenocarcinoma cells; test: Growth of inoculated MC-38 adenocarcinoma cells in mice; format: in vivo, mouse
Procedure: as §1, with “Boxplots: hinges, 25th and 75th percentiles; middle line, median; whiskers, minimum to maximum value.” left out
Next, the effects of SD-induced PD-1 reduction were compared with those of anti-PD-1 antibody treatment in vivo. […] CD3^+ T cells infiltrating the MC-38 microenvironment were analyzed on day 9 of treatment before the MC-38 tumor masses had shrunk with treatment and no longer provided sufficient T cells for FACS analyses. […]

[4] = biological target: SD-EGFP (N-terminal SD) (Aequorea victoria, UniProt P42212, F64L/H231L/S65T); format: cell-based, mouse; conditions: transient, 24 h; for DC50: read-out: DC50, SD-EGFP
[5] = tested on: SD-EGFP (N-terminal SD); format: cell-based, mouse; conditions: Crbn+/I391V mESCs (h/mCRBN), transient, 24 h
[6] = biological target: EGFP-ZFP91 (UniProt P42212+Q8C7D2, F64L/H231L/INS1V/S65T); format: cell-based, mouse; conditions: read-out: DC50, EGFP-ZFP91, stable
Sequence of EGFP-ZFP91 (Q8C7D2 whole entry, looked up, stated change not applied, other chains not shown): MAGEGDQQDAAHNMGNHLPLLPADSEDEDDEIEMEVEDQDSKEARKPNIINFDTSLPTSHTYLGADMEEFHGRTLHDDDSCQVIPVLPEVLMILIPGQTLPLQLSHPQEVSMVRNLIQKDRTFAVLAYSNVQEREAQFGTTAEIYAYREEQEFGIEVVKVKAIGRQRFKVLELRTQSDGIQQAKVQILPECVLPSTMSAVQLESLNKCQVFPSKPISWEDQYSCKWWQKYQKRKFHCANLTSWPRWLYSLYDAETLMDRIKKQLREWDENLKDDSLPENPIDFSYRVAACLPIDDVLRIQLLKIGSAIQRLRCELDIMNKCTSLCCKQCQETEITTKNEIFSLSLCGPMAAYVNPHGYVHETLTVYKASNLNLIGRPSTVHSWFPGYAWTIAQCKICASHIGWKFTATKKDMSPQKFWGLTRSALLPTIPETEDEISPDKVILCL

[7] = tested on: Ba/F3 mouse pro-B cell line; set-up: method as in PMID 38484051; conditions: cited from earlier work
[8] = mouse wild-type cell lines, independent of IBR concentration

Compound: O=C1CC[C@H](N2Cc3c(OCc4ccc(CN5CCOCC5)cc4)cccc3C2=O)C(=O)N1 [IBR, iberdomide]
- Tau, EGFP-SD degradation ([1]; EL4, 0.01 µM IBR): 0.5057
- Plateau, EGFP-SD degradation ([1]; EL4, 0.01 µM IBR): 0.106 and 0.11
- K, EGFP-SD degradation ([1]; EL4, 0.01 µM IBR): 1.978
- Tau, EGFP-SD degradation ([1]; EL4, 0.1 µM IBR): 0.4779
- Plateau, EGFP-SD degradation ([1]; EL4, 0.1 µM IBR): 0.0948
- K, EGFP-SD degradation ([1]; EL4, 0.1 µM IBR): 2.093
- Tau, EGFP-SD degradation ([1]; EL4, 1 µM IBR): 0.4762
- Plateau, EGFP-SD degradation ([1]; EL4, 1 µM IBR): 0.09035
- K, EGFP-SD degradation ([1]; EL4, 1 µM IBR): 2.1
- Tau, EGFP-SD degradation ([1]; NIH/3T3, 0.01 µM IBR): 0.5217
- Plateau, EGFP-SD degradation ([1]; NIH/3T3, 0.01 µM IBR): 0.1206 and 0.12
- K, EGFP-SD degradation ([1]; NIH/3T3, 0.01 µM IBR): 1.917
- Tau, EGFP-SD degradation ([1]; NIH/3T3, 0.1 µM IBR): 0.4536
- Plateau, EGFP-SD degradation ([1]; NIH/3T3, 0.1 µM IBR): 0.09879
- K, EGFP-SD degradation ([1]; NIH/3T3, 0.1 µM IBR): 2.205
- Tau, EGFP-SD degradation ([1]; NIH/3T3, 1 µM IBR): 0.4422
- Plateau, EGFP-SD degradation ([1]; NIH/3T3, 1 µM IBR): 0.0887
- K, EGFP-SD degradation ([1]; NIH/3T3, 1 µM IBR): 2.261
- Tau, EGFP-SD degradation ([1]; mESCs, 0.01 µM IBR): 0.9013
- Plateau, EGFP-SD degradation ([1]; mESCs, 0.01 µM IBR): 0.1599 and 0.16
- K, EGFP-SD degradation ([1]; mESCs, 0.01 µM IBR): 1.11
- Tau, EGFP-SD degradation ([1]; mESCs, 0.1 µM IBR): 0.8006
- Plateau, EGFP-SD degradation ([1]; mESCs, 0.1 µM IBR): 0.1092
- K, EGFP-SD degradation ([1]; mESCs, 0.1 µM IBR): 1.249
- Tau, EGFP-SD degradation ([1]; mESCs, 1 µM IBR): 0.8069
- Plateau, EGFP-SD degradation ([1]; mESCs, 1 µM IBR): 0.09822
- K, EGFP-SD degradation ([1]; mESCs, 1 µM IBR): 1.239
- time after which EGFP-SD expression was minimal ([1]; mESCs, NIH/3T3, EL4): 6 h
- time to halve the amount of EGFP-SD [1, 8]: 20 to 40 min
- time to reduce EGFP-SD to 10% [1, 8]: approximately 3 h
- TIM-3 in CD8+ T cells vs untreated ([2]; IBR: Pdcd1SD/SD/CrbnI391V/I391V, cell ratio and expression level, antibody: Pdcd1+/+/CrbnI391V/I391V, expression level): decreased
- CX3CR1 in CD8+ T cells vs untreated ([2]; IBR: Pdcd1SD/SD/CrbnI391V/I391V, antibody: Pdcd1+/+/CrbnI391V/I391V, CX3CR1+ cell ratio): comparable between IBR-treated and untreated groups
- LAG-3 and TIGIT in CD8+ T cells vs untreated ([2]; IBR: Pdcd1SD/SD/CrbnI391V/I391V, antibody: Pdcd1+/+/CrbnI391V/I391V, expression level): remained comparable
- LAG-3 expression levels in CD4+ T cells ([2]; Pdcd1SD/SD/CrbnI391V/I391V): higher than those in the untreated group
- PD-1 expression level in PD-1+ CD8+ T cells vs untreated ([2]; Pdcd1SD/SD/CrbnI391V/I391V, day 9): significant reduction
- frequency / number of T cells infiltrating the MC-38 microenvironment ([2]; day 9 of treatment): did not differ
- MC-38 cell proliferation ([3]; Pdcd1+/+/CrbnI391V/I391V mice): comparable
- growth of MC-38 cells ([3]; Pdcd1SD/SD/CrbnI391V/I391V mice, oral administration of IBR): suppressed proliferation for the entire period
- Bottom, SD-EGFP (EGFP/mCherry MFI) ([4]; B6J-S1 mESCs): 0.09529
- bottom vs top, SD-EGFP ([4]; B6J-S1 mESCs): 0.24
- Bottom, SD-EGFP (EGFP/mCherry MFI) ([4]; Crbn+/+ mESCs (mCRBN)): 0.113
- bottom vs top, SD-EGFP ([4]; Crbn+/+ mESCs (mCRBN)): 0.25
- Bottom, SD-EGFP (EGFP/mCherry MFI) ([4]; CrbnI391V/I391V mESCs (hCRBN)): 0.04953
- bottom vs top, SD-EGFP ([4]; CrbnI391V/I391V mESCs (hCRBN)): 0.13
- DC50 ([4]; B6J-S1 mESCs): 1.82 nM
- DC50 ([4]; Crbn+/+ mESCs (mCRBN)): 6.06 nM
- DC50 ([4]; CrbnI391V/I391V mESCs (hCRBN)): 0.0637 nM
- Bottom, SD-EGFP (EGFP/mCherry MFI) [5]: 0.07126
- DC50 [5]: 0.0784 nM
- bottom vs top, SD-EGFP [5]: 0.18
- DC50 ([6]; B6J-S1 mESCs, Figure 5B): 20.9 nM
- DC50 ([6]; CrbnI391V/I391V mESCs, Figure 5E): 0.834 nM

Compound: Nc1cccc2c1C(=O)N(C1CCC(=O)NC1=O)C2=O (centres unmarked) [POM, pomalidomide]
- proteins reduced [7]: very few proteins
